From PubChem BioAssay (NCI)
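Assay format: 96-well plates, 48-hour exposure. GI50: concentration for 50% inhibition of growth. The concentration for full growth arrest is given as TGI.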

How the values were obtained:
Assay in all cases: inhibition of tumour cell growth, NCI panel, 48 h
[1] = test system: SK-MEL-2 melanoma
[2] = test system: SN12C renal
[3] = test system: MALME-3M melanoma
[4] = test system: ACHN renal
[5] = test system: SF-295 CNS
[6] = test system: OVCAR-3 ovarian
[7] = test system: LOX IMVI melanoma
[8] = test system: SW-620 colon
[9] = test system: HL-60(TB) leukemia
[10] = test system: NCI/ADR-RES ovarian
[11] = test system: M14 melanoma
[12] = test system: HOP-92 NSCLC
[13] = test system: SK-MEL-5 melanoma
[14] = test system: MOLT-4 leukemia
[15] = test system: CAKI-1 renal
[16] = test system: A549 NSCLC
[17] = test system: UACC-257 melanoma
[18] = test system: NCI-H460 lung
[19] = test system: HCT-15 colon
[20] = test system: RPMI-8226 leukemia
[21] = test system: SK-MEL-28 melanoma
[22] = test system: HOP-62 NSCLC
[23] = test system: HS 578T breast
[24] = test system: U251 CNS
[25] = test system: SK-OV-3 ovarian
[26] = test system: IGROV1 ovarian
[27] = test system: NCI-H23 lung
[28] = test system: EKVX NSCLC

O=C(N/N=C/c1ccc(B(O)O)o1)c1[nH]c2ccc(Br)cc2c1-c1ccccc1
GI50 [1]: 13.5 µM
TGI [1]: 43.5 µM
GI50 [2]: 24.4 µM
TGI [2]: > 100 µM
GI50 [3]: 26.9 µM
TGI [3]: > 100 µM
GI50 [4]: 29.6 µM
TGI [4]: > 100 µM
GI50 [5]: 13.1 µM
TGI [5]: 43.1 µM
GI50 [6]: 14.8 µM
TGI [6]: > 100 µM
GI50 [7]: 18.1 µM
TGI [7]: > 100 µM
GI50 [8]: 35.7 µM
TGI [8]: > 100 µM
GI50 [9]: 13 µM
TGI [9]: 37.1 µM
GI50 [10]: 12.2 µM
TGI [10]: 56.2 µM
GI50 [11]: 19 µM
TGI [11]: > 100 µM
GI50 [12]: 11.7 µM
TGI [12]: 52.8 µM
GI50 [13]: 14.7 µM
TGI [13]: 35.5 µM
GI50 [14]: 20.3 µM
TGI [14]: 73.3 µM
GI50 [15]: 30.8 µM
TGI [15]: > 100 µM
GI50 [16]: 27.1 µM
TGI [16]: > 100 µM
GI50 [17]: 19.1 µM
TGI [17]: > 100 µM
GI50 [18]: 29.1 µM
TGI [18]: > 100 µM
GI50 [19]: 22.6 µM
TGI [19]: > 100 µM
GI50 [20]: 29.5 µM
TGI [20]: > 100 µM
GI50 [21]: 10.7 µM
TGI [21]: > 100 µM
GI50 [22]: 11.9 µM
TGI [22]: 36.6 µM
GI50 [23]: 8.91 µM
TGI [23]: 93.6 µM
GI50 [24]: 16.5 µM
TGI [24]: 44.4 µM
GI50 [25]: 21.8 µM
TGI [25]: 67.3 µM
GI50 [26]: 25.7 µM
TGI [26]: > 100 µM
GI50 [27]: 26.5 µM
TGI [27]: > 100 µM
GI50 [28]: 28.6 µM
TGI [28]: > 100 µM
